The term MIC denotes the smallest concentration in the dilution series that meets the test's criterion for growth inhibition.

SMILES strings stand for the structures. Bounds are passed on as bounds.

The results in this text go back to paper PMC4019636, “Rational Design of Berberine-Based FtsZ Inhibitors with Broad-Spectrum Antibacterial Activity” (PLoS ONE, 2014).

What all share (assay type): cell-based
The test system of experiment [1] is S. aureus ATCC BAA-41. Briefly: Antimicrobial susceptibility assay (broth microdilution MIC). Particulars: Staphylococcus aureus, ATCCBAA41; S. aureus ATCC BAA-41 (methicillin-resistant); 18 h at 37°C; growth inhibited by ≥90%; read-out: MIC. The source says: (§1) The bacterial strains S. aureus ATCC 29213, S. aureus ATCC 29247, S. aureus ATCC BAA-41, E. faecium ATCC 49624, E. faecium ATCC 700221, E. faecalis ATCC 29212, S. epidermidis ATCC 12228, E. coli ATCC 25922, and K. pneumoniae ATCC BAA-1144 used in the antimicrobial susceptibility assays were purchased from American Type Culture Collection (ATCC, USA). B. subtilis strain 168 was already available in our in-house collection. E. coli JM109 WM647 was kindly provided by Dr. W. Margolin (University of Texas-Houston Medical School). FM 4–64 was purchased from Invitrogen (Eugene, Oregon). All other chemicals and reagents were purchased from Sigma-Aldrich. Stock solutions were prepared in DMSO. The final percentage of DMSO in the assays was 1% (v/v) for all experiments.
(§2) Antimicrobial susceptibility tests were conducted in 96-well microplates using the broth microdilution procedure described in the Clinical and Laboratory Standards Institute (CLSI) guidelines. Cation-adjusted Mueller Hinton broth for S. aureus strain ATCC 29213, methicillin-resistant S. aureus strain ATCC BAA-41 and ampicillin-resistant S. aureus strain ATCC 29247, or brain heart infusion broth for antibiotic-susceptible E. faecium strain ATCC 49624 and vancomycin-resistant E. faecium strain ATCC 700221, or Mueller Hinton broth for antibiotic-susceptible strains B. subtilis strain 168, E. faecalis strain ATCC 29212 and E. coli strain ATCC 25922 were used in the assays. After incubation for 18 h at 37°C, the absorbance at 600 nm (A600) was recorded using a microplate reader (Bio-Rad laboratory Ltd., UK) and the percentage of bacterial cell inhibition with respect to vehicles (1% DMSO) was calculated. The MIC was defined as the lowest compound concentration at which the growth of bacteria was inhibited by ≥90%. Three independent assays were performed for each test.

In experiment [2] the test system is S. epidermidis ATCC 12228. Described as above. Particulars: Staphylococcus epidermidis, ATCC12228; S. epidermidis ATCC 12228; 18 h at 37°C; growth inhibited by ≥90%; read-out: MIC.
Description: as §1, §2

In experiment [3] the test system is S. aureus ATCC 29247. The description is as above. Particulars: Staphylococcus aureus, ATCC29247; S. aureus ATCC 29247 (ampicillin-resistant); 18 h at 37°C; growth inhibited by ≥90%; read-out: MIC.
Description: as §1, §2

For experiment [4], the system named is E. coli ATCC 25922. The experiment is described as above. The settings on record: Escherichia coli, ATCC25922; E. coli ATCC 25922; Mueller Hinton broth, 18 h at 37°C; growth inhibited by ≥90%; read-out: MIC.
Description: as §1, §2

Experiment [5] relates to B. subtilis 168. The description is as above. Particulars: Bacillus subtilis; B. subtilis 168; Mueller Hinton broth, 18 h at 37°C; growth inhibited by ≥90%; read-out: MIC.
Description: as §1, §2

Experiment [6] has as its system S. aureus ATCC 29213. Described as above. The settings on record: Staphylococcus aureus, ATCC29213; S. aureus ATCC 29213; cation-adjusted Mueller Hinton broth, 18 h at 37°C; growth inhibited by ≥90%; read-out: MIC.
Description: as §1, §2

For experiment [7], the system named is K. pneumoniae ATCC BAA-1144. The description is as above. The settings on record: Klebsiella pneumoniae, ATCCBAA1144; K. pneumoniae ATCC BAA-1144 (Gram-negative, expressing AmpC β-lactamase); 18 h at 37°C; growth inhibited by ≥90%; read-out: MIC.
Description: as §1, §2

Experiment [8] deals with E. faecalis ATCC 29212. Described as above. Particulars: Enterococcus faecalis, ATCC29212; E. faecalis ATCC 29212; Mueller Hinton broth, 18 h at 37°C; growth inhibited by ≥90%; read-out: MIC.
Description: as §1, §2

Experiment [9] concerns vancomycin-susceptible and vancomycin-resistant E. faecium. The experiment can be described thus: Antimicrobial susceptibility assay, summary over E. faecium strains. Particulars: Enterococcus faecium.
Description: as §1, §2

Experiment [10] relates to antibiotic-susceptible and antibiotic-resistant S. aureus strains. Briefly: Antimicrobial susceptibility assay, summary over S. aureus strains. The settings on record: Staphylococcus aureus.
Description: as §1, §2

For `COc1ccc2cc3[n+](cc2c1OC)CCc1cc2c(cc1-3)OCO2` [Berberine, Berberine chloride], the MIC in [1] was 196 µg/mL; in [2] it was 128 µg/mL; in experiment [3] it was 128 µg/mL; in [4] it was over 500 µg/mL; in experiment [5], 128 µg/mL; in [6] it was 128 µg/mL. For the same molecule, the MIC in experiment [7] was over 500 µg/mL; in [8], over 196 µg/mL; in [9], over 196 µg/mL; in experiment [10], 128 to 196 µg/mL.

Regarding `COc1ccc2cc3[n+](cc2c1OCCCOc1ccccc1)CCc1cc2c(cc1-3)OCO2` [Compound 1], the MIC in experiment [1] worked out at 4 µg/mL; in experiment [2], 4 µg/mL; in [3] it was 4 µg/mL; in experiment [4] it was 96 µg/mL; in experiment [5], 8 µg/mL; in experiment [6], 4 µg/mL. For the same molecule, the MIC is 128 µg/mL in experiment [7], 16 µg/mL in [8], 4 to 16 µg/mL in [9] and 2 to 8 µg/mL in [10].

For the molecule `COc1ccc2cc3[n+](cc2c1OCCCOc1ccc(Cl)cc1)CCc1cc2c(cc1-3)OCO2` [Compound 2], the MIC in [1] was found to be 2 µg/mL; in experiment [2], 2 µg/mL; in experiment [3] it was 2 µg/mL; in [4], 32 µg/mL; in [5] it was 4 µg/mL; in experiment [6], 2 µg/mL. The MIC in [7] is 64 µg/mL; in experiment [8] it was 4 µg/mL; in experiment [9] it was 4 to 16 µg/mL; in [10], 2 to 8 µg/mL.

As for `COc1ccc(OCCCOc2c(OC)ccc3cc4[n+](cc23)CCc2cc3c(cc2-4)OCO3)cc1` [Compound 3], the MIC amounted to 8 µg/mL in [1]; 4 µg/mL in experiment [2]; 8 µg/mL in experiment [3]; 128 µg/mL in [4]; 8 µg/mL in experiment [5]; 8 µg/mL in experiment [6]. Also, the MIC was 128 µg/mL in experiment [7], 32 µg/mL in [8], 4 to 16 µg/mL in experiment [9] and 2 to 8 µg/mL in experiment [10].

Take `COc1ccc2cc3[n+](cc2c1OCCCOc1ccccc1C)CCc1cc2c(cc1-3)OCO2` [Compound 4]: the MIC in [1] came out at 4 µg/mL; in [2], 4 µg/mL; in [3], 4 µg/mL; in [4] it was 96 µg/mL; in experiment [5], 8 µg/mL; in experiment [6], 4 µg/mL. The minimum inhibitory concentration (MIC) is 64 µg/mL in experiment [7], 8 µg/mL in experiment [8], 4 to 16 µg/mL in experiment [9] and 2 to 8 µg/mL in experiment [10].

On to `COc1ccc2cc3[n+](cc2c1OCCCOc1ccc([N+](=O)[O-])cc1)CCc1cc2c(cc1-3)OCO2` [Compound 5], for which the MIC in [1] came to 2 µg/mL; in experiment [2] it was 2 µg/mL; in experiment [3], 2 µg/mL; in experiment [4], 32 µg/mL; in [5], 8 µg/mL; in [6] it was 2 µg/mL. Also, the MIC in experiment [7] is 64 µg/mL; in experiment [8], 8 µg/mL; in experiment [9], 4 to 16 µg/mL; in experiment [10], 2 to 8 µg/mL.

As for `COc1ccc2cc3[n+](cc2c1OCCCCOc1ccccc1)CCc1cc2c(cc1-3)OCO2` [Compound 6], the MIC worked out at 4 µg/mL in experiment [1]; 4 µg/mL in experiment [2]; 4 µg/mL in [3]; 96 µg/mL in [4]; 8 µg/mL in [5]; 4 µg/mL in experiment [6]. The minimal inhibitory concentration (MIC) was 128 µg/mL in experiment [7], 16 µg/mL in experiment [8], 4 to 16 µg/mL in [9] and 2 to 8 µg/mL in experiment [10].
